≈ marks a conversion by molar mass, not a printed value.
Columns and labels:
[1] = target: T1, B. subtilis pol IIIC (Bacillus subtilis, UniProt P13267); assay: DNA polymerase assay, B. subtilis pol IIIC; format: biochemical
T1 construct: made in house

[2] = test system: Staphylococcus aureus strain IP 8; assay: Inhibition of bacterial growth (MIC), Sa; format: cell-based; settings: IP8, 16 to 18 hours, 37° C., read-out: Minimum Inhibitory Concentration for Bacterial Growth, Sa
Method in brief: (§1)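 Two-fold DMSO dilutions, usually 80-0.078 μg/mL, 1% DMSO final. Inoculum of 1×10^5 CFU/mL log-phase cells in LB or BHI, shaken 16 to 18 hours at 37° C. Growth read as OD 570 nm; MIC is the lowest concentration without growth.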

[3] = test system: Escherichia coli strain J53; assay: Inhibition of bacterial growth (MIC), Ec; format: cell-based; settings: 16 to 18 hours, 37° C., read-out: Minimum Inhibitory Concentration for Bacterial Growth, Ec
Method in brief: as §1

T1 sequence (P13267 whole entry): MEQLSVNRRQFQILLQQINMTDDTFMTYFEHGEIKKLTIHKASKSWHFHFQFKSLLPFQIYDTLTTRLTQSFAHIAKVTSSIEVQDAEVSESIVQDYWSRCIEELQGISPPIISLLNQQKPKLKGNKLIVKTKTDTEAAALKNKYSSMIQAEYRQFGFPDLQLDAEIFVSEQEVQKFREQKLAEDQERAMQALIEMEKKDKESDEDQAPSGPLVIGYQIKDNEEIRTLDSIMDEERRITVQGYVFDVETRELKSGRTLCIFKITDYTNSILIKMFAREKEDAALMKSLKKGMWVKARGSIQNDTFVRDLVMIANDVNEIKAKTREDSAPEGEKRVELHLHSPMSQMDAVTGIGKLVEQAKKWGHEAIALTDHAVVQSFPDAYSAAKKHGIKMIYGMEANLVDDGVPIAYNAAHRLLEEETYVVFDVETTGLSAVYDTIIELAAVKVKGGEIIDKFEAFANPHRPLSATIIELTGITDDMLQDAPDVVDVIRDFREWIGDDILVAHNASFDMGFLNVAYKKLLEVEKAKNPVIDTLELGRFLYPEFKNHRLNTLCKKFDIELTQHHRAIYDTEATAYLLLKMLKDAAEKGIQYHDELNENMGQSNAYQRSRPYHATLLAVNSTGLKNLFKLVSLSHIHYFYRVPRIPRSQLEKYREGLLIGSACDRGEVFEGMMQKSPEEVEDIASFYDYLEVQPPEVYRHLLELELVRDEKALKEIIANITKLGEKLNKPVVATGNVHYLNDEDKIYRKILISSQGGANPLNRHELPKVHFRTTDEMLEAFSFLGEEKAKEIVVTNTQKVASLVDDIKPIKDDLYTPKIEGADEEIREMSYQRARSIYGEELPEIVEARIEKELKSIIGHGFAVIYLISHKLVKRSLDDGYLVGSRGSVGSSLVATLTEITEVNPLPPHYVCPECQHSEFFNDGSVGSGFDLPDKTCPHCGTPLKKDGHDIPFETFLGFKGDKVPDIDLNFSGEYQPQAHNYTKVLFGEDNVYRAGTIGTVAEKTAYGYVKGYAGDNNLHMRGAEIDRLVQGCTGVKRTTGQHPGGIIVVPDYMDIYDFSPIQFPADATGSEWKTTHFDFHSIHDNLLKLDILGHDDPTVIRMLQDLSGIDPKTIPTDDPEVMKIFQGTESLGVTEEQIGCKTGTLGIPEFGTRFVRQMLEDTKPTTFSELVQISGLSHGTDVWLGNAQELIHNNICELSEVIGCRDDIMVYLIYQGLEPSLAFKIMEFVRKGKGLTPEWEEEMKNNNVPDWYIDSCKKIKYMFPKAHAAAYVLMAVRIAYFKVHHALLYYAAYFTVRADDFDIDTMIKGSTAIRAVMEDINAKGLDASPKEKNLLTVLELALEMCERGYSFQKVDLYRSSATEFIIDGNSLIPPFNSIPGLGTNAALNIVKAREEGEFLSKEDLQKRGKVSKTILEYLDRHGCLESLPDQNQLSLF

Question: Which results are given for COc1ccc(-c2cc(C(=O)NN=Cc3cc(OC)c(OC)c(OC)c3)[nH]n2)cc1 [Compound 17]?
Answer: IC50 ([1]; B. subtilis Pol IIIC IC50, 4 dNTPs, in the presence of all four dNTP substrates): 36 µM; IC50 ([1]; B. subtilis Pol IIIC IC50, −dATP, in the absence of dATP): 3.1 µM; IC50 ([1]; B. subtilis Pol IIIC IC50, −dCTP, in the absence of dCTP): 2.6 µM; IC50 ([1]; B. subtilis Pol IIIC IC50, −dGTP, in the absence of dGTP): 1.8 µM; MIC [2]: 1.25 µg/mL (≈ 3.05 µM); MIC [3]: > 80 µg/mL
